Some test systems named below: DLD-1; DMS-114; DMS-273; HOP-18; LXFL 529; M19-MEL; RXF 631; SNB-78; XF498.
Common to all, as to assay: NCI tumour cell line growth inhibition, 48 h

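Briefly, cells in 96-well plates were exposed to five compound concentrations for 48 h, and endpoints were estimated by linear interpolation. Abbreviation: GI50, concentration required for 50% inhibition of growth.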 Active and inactive are the calls of the source. No stated cut-off is given here; in the data, active = GI50 up to about 1.1 µM and inactive = higher.

20 compounds from ChEMBL document CHEMBL1201862, “PubChem BioAssay data set” (2004) can be followed below.

As to `O=C1NC2C(=CC(O)C(O)C2O)c2cc3c(cc21)OCO3` (stereo not given), the GI50 in the test with DLD-1 was 0.255 µM (active); in the test with DMS-114 it was 0.43 µM (active); with DMS-273, 0.436 µM (active); in the test with HOP-18, 1.48 µM (inactive); in the test with LXFL 529, 0.43 µM (active); in the test with M19-MEL it was 0.251 µM (active). The values for the GI50 in the test on RXF 631, in the test on SNB-78 and in the test on XF498 were 0.433 µM (active), 0.569 µM (active) and 0.171 µM (active), respectively.

On to `Cc1ccc2c(C)c3ccc4ccccc4c3c[n+]2c1.[O-][Cl+3]([O-])([O-])[O-]`, for which the GI50 with DLD-1 was 37.8 µM (inactive); in the test on DMS-114, 10.6 µM (inactive); in the test with DMS-273 it was 11.5 µM (inactive); with HOP-18, 12.4 µM (inactive); in the test on LXFL 529, 9.1 µM (inactive); in the test with M19-MEL, 4.88 µM (inactive). Besides, the GI50 with SNB-78 was 41.4 µM (inactive).

In the case of `COC(=O)C(/C(=N/N)C(=O)Nc1cc(Cl)ccc1Cl)c1nc2ccc([N+](=O)[O-])cc2nc1O` (stereo not given), the GI50 in the test on DMS-114 was 50.2 µM (inactive); in the test on DMS-273, 57.3 µM (inactive); in the test on LXFL 529, 48 µM (inactive); in the test on SNB-78 it was > 100 µM (inactive); with XF498, > 100 µM (inactive).

Consider `CCN(N=O)C1C2(CCCC2)NC(=O)C12CCCC2` (stereo not given), for which the GI50 with DLD-1, in the test on DMS-114, with HOP-18, with LXFL 529, with M19-MEL and in the test with RXF 631 was > 100 µM (inactive) in each case. In addition, the GI50 in the test on SNB-78 and in the test on XF498 was > 100 µM (inactive) each time.

Regarding `CC(C)C1CCC/C=C/C=C/C=C/C=C/C(OC2OC(C)C(O)C(N)C2O)CC2OC(O)(CC(O)CC(O)C(O)CCC(=O)O1)CC(O)C2C(=O)O` (stereo not given), the GI50 with DMS-114, in the test with HOP-18, in the test on LXFL 529, in the test with M19-MEL and in the test with SNB-78 was > 52.5 µM (inactive) each time.

Regarding `C=CNC(=O)NC(=O)CSc1nc(=O)c(-c2ccccc2NC(=O)C(F)(F)F)n[nH]1`, the GI50 with DLD-1 is 2.81 µM (inactive); in the test on DMS-114, 21.1 µM (inactive); with DMS-273, 43.9 µM (inactive); in the test with LXFL 529, > 100 µM (inactive); in the test on M19-MEL it was > 100 µM (inactive); in the test on SNB-78, 25.2 µM (inactive). Moreover, in the test with XF498, the GI50 was 33.9 µM (inactive).

`Cc1c2n(c(=O)[nH]c1=O)C1OC(CO)C(O2)C1O` (stereo not given): the GI50 in the test on DLD-1, in the test on DMS-114, in the test on DMS-273, in the test on LXFL 529, in the test with M19-MEL and in the test with SNB-78 was > 100 µM (inactive) throughout.

Consider `O=C(c1ccc(Cl)cc1)N(C(=S)N1CCN(c2ccccn2)CC1)C1CCCCC1`, for which the GI50 with DLD-1 was 81.7 µM (inactive); in the test on DMS-114, 34.9 µM (inactive); with DMS-273, 34.3 µM (inactive); in the test with HOP-18, > 100 µM (inactive); in the test on LXFL 529, 75.7 µM (inactive); in the test on M19-MEL, > 100 µM (inactive). In addition, the GI50 in the test on SNB-78 was > 100 µM (inactive); in the test with XF498 it was 8.26 µM (inactive).

Take `CCc1c(Cc2[nH]c(Cc3[nH]c(C=O)c(C)c3CC)c(CC)c2CC)[nH]c(C=O)c1C`: the GI50 in the test on DLD-1, in the test with DMS-114, with DMS-273, in the test with HOP-18, in the test on LXFL 529 and in the test with M19-MEL was > 100 µM (inactive) throughout. For the same compound, the GI50 in the test on SNB-78 and in the test on XF498 was > 100 µM (inactive) throughout.

Turning to `O=C(O)c1ccccc1/N=N/c1ccc2oc(=O)c(C(=O)Nc3ccccc3)cc2c1`, the GI50 in the test on DLD-1 is 40.9 µM (inactive); in the test with DMS-114, 25.1 µM (inactive); in the test with DMS-273, 39 µM (inactive); in the test with HOP-18 it was 30.1 µM (inactive); in the test with M19-MEL it was 33.3 µM (inactive); in the test with XF498 it was 45.8 µM (inactive).

For `COC(=O)Cc1cc(=O)oc2c1C(=O)CCC2`, the GI50 in the test on DLD-1, in the test with DMS-114, with DMS-273, in the test on LXFL 529, in the test on M19-MEL and with SNB-78 was > 100 µM (inactive) throughout. Besides, in the test with XF498, the GI50 was > 100 µM (inactive).

For the compound `Cc1c(C(=O)/C=C/c2c(Cl)cccc2Cl)c(=O)n(-c2ccccc2)n1C`, the GI50 with DMS-114 is 22.7 µM (inactive); in the test with DMS-273 it was 4.82 µM (inactive); with LXFL 529, 5.47 µM (inactive); in the test with M19-MEL, 8.55 µM (inactive); in the test on SNB-78, 6.24 µM (inactive); in the test with XF498, 19.6 µM (inactive).

With `Nc1cc(O)nc(SC2=NC(N)CC(O)C2)n1` (stereo not given), the GI50 in the test on DLD-1, with DMS-114, in the test with DMS-273, in the test on HOP-18, with LXFL 529 and in the test on M19-MEL was > 100 µM (inactive) in each case. The GI50 with SNB-78 and with XF498 was > 100 µM (inactive) in each case.

For `CCCN(CCCN)/[N+]([O-])=N\O`, the GI50 in the test with DLD-1, in the test on DMS-114, with DMS-273, in the test on HOP-18, in the test with LXFL 529 and in the test with M19-MEL was > 100 µM (inactive) in each case. Moreover, the GI50 with RXF 631 and in the test with SNB-78 was > 100 µM (inactive) throughout.

As for `COC1(OC)C(N(C)C)=C(Cl)C(=O)/C1=C/C=O`, the GI50 in the test on DLD-1 was > 100 µM (inactive); with DMS-114, > 100 µM (inactive); in the test with DMS-273, > 100 µM (inactive); in the test on HOP-18 it was > 100 µM (inactive); in the test on LXFL 529, > 100 µM (inactive); in the test with M19-MEL it was 74.6 µM (inactive).

Regarding `O=C1c2ccccc2C(=O)c2sc(Nc3ccc([N+](=O)[O-])cc3)nc21`, the GI50 with DLD-1 was 4.19 µM (inactive); in the test with DMS-114, 2.49 µM (inactive); with DMS-273 it was 7.69 µM (inactive); in the test with HOP-18, 4.33 µM (inactive); in the test with LXFL 529 it was 1.66 µM (inactive); in the test with M19-MEL it was 1.55 µM (inactive). The GI50 in the test with RXF 631 was 19.5 µM (inactive); with SNB-78 it was 10 µM (inactive); with XF498, 2.17 µM (inactive).

Regarding `COC1OC(C)C(O)CC1OS(=O)(=O)c1ccc(C)cc1` (stereo not given), the GI50 with DMS-114, with DMS-273, with HOP-18, with LXFL 529, with M19-MEL and in the test on SNB-78 was > 100 µM (inactive) in each case.

`CC(C)(C)c1cc(C(P(=O)(O)O)P(=O)(O)O)cc(C(C)(C)C)c1O`: the GI50 in the test with DLD-1, in the test on DMS-114, with DMS-273, in the test with HOP-18, in the test with LXFL 529 and in the test with M19-MEL was > 100 µM (inactive) in each case. Also, the GI50 in the test on SNB-78 was > 100 µM (inactive).

In the case of `Nc1ccn(C2(CO)C=C(CO)C(O)C2O)c(=O)n1` (stereo not given), the GI50 in the test with DLD-1, in the test on DMS-114, in the test on DMS-273, with HOP-18, in the test on LXFL 529 and in the test with M19-MEL was > 25.8 µM (inactive) in each case. Also, in the test on SNB-78, the GI50 is > 25.8 µM (inactive).

Turning to `COc1cc(O)c2c(c1)C(=O)C1=C(C2=O)C(O)C[C@@](C)(O)C1` (stereo not given in full), the GI50 in the test with DLD-1 was 0.229 µM (active); in the test on DMS-114 it was 1.5 µM (inactive); with DMS-273, 1.57 µM (inactive); in the test on LXFL 529, 0.582 µM (active); in the test on M19-MEL, 0.452 µM (active); in the test with SNB-78 it was 1.9 µM (inactive). Besides, in the test with XF498, the GI50 is 1.9 µM (inactive).
